The values below come from patent US20220249399A1, “COMPOSITION COMPRISING AN ANTI-OXIDANT TO PRESERVE CORNEAL TISSUE” (University of lowa Research Foundation, priority 2019, published 2022).

This experiment has as its system A549 human lung cancer cells. Put plainly: ROS assay, dihydroethidium (DHE) fluorescence by flow cytometry, with or without antimycin A. The class given is cell-based. The settings on record: for ROS levels (DHE fluorescence) with antimycin A (AM): AM as ROS inducer, p<0.05. The method, then:
A549 human lung cancer cells were seeded in 6-well plates at 200,000 cells/well for 40 hours, then the medium was removed, and treatments were added. Ubiquinol (coQ10) was dispersed in RPMI medium at three different concentrations (100, 50, and 10 μM) and added to wells (n=3 each), then the volume of each well was completed to 4 ml with medium. Ubiquinol-γ-cyclodextrin (1:10 molar ratio) complex dispersed in RPMI at three different concentrations (equivalent to 100, 50, and 10 μM of ubiquinol) and added to wells (n=3/each) and the volume of the each well was completed to 4 ml with medium._γ-cyclodextrin was added in amounts equivalent to those associated with 100, 50, and 10 μM of the complex to each well (n=3/each) and the volume of the each well was completed to 4 ml with medium._Six wells were left untreated._After 24 h, media were removed, and wells were washed with 5 mM sodium pyruvate in PBS, trypsinized, then collected in 15 ml tubes by centrifugation. Cells were washed with 5 mM sodium pyruvate in PBS, then re-suspended in 1 ml of the same solution._The reagents were added as described in FIG. 14, then incubated at 40 min._Cells were re-suspended and transferred to round-bottom tubes, and analyzed by flow Cytometry.

With ubiquinol, the “ROS inhibition with an increase in concentration” value (10, 50, 100 μM ubiquinol or equivalent) is “does not result in any significant change in ROS inhibition”. In addition, the “ROS levels (DHE fluorescence) with antimycin A (AM)” value runs as follows: (24 h treatment, listed as Free ubiquinol) “failed to decrease ROS levels after AM treatment”; (24 h treatment, listed as free ubiquinol) “unable to inhibit ROS”. Besides, for the setting “24 h treatment, no AM”, the “ROS levels (DHE fluorescence) without ROS induction by AM” value is reported as “decrease the ROS levels in the cells below the normal levels”.
